Results on eight compounds are retold here after ChEMBL document CHEMBL1131977, “Synthesis and in vitro activity of new oxazolidinone antibacterial agents having substituted isoxazoles” (1999).

Holding throughout (format): functional
Assay [1] deals with Enterococcus faecium. Briefly: In vitro antibacterial activity against Enterococcus faecium C6301 (E.f.2).
In assay [2] the test system is Staphylococcus aureus. Nature of the assay: In vitro antibacterial activity against ciprofloxacin-resistant Staphylococcus aureus (CRSA) C6043.
For assay [3], the system named is Staphylococcus epidermidis. Nature of the assay: In vitro antibacterial activity against Staphylococcus epidermis (S.e.1) […].
The subject of assay [4] is Staphylococcus aureus. Nature of the assay: In vitro antibacterial activity against methicillin-resistant Staphylococcus aureus (MRSA) C6068.
For assay [5], the system named is Staphylococcus aureus. Briefly: In vitro antibacterial activity against methicillin-susceptible Staphylococcus aureus (MSSA) C2214.
Assay [6] relates to Enterococcus faecalis. Briefly: In vitro antibacterial activity against Enterococcus faecalis C6291 (E.f.1).
For assay [7], the system named is Streptococcus pyogenes. Nature of the assay: In vitro antibacterial activity against Streptococcus pyogenes ATCC 8668 (S.p.1).
The test system of assay [8] is Enterococcus faecium. Nature of the assay: In vitro antibacterial activity against vancomycin-resistant Enterococcus faecium C6487 (VRE).
Assay [9] relates to Streptococcus pyogenes. Nature of the assay: In vitro antibacterial activity against Streptococcus pyogenes C6003 (S.p.2).
Assay [10] deals with Staphylococcus aureus. Briefly: In vitro antibacterial activity against Staphylococcus aureus (S. a.) ATCC 29213.
For assay [11], the system named is Staphylococcus epidermidis. Nature of the assay: In vitro antibacterial activity against Staphylococcus epidermis (S.e.2) C2235.

≈ marks a conversion by molar mass, not a printed value.

`CC(=O)NC[C@H]1CN(c2ccc(N3CCN(C(=O)c4cc(-c5cccs5)no4)CC3)c(F)c2)C(=O)O1`: the MIC in assay [1] was 1 µg/mL (≈ 1.95 µM); in assay [2], 1 µg/mL (≈ 1.95 µM); in [3], 0.25 µg/mL (≈ 0.487 µM); in [4], 1 µg/mL (≈ 1.95 µM); in assay [5], 1 µg/mL (≈ 1.95 µM); in [6] it was 1 µg/mL (≈ 1.95 µM). Moreover, the MIC stood at 0.5 µg/mL (≈ 0.974 µM) in assay [7]; 1 µg/mL (≈ 1.95 µM) in assay [8]; 0.5 µg/mL (≈ 0.974 µM) in [9]; 1 µg/mL (≈ 1.95 µM) in [10]; 1 µg/mL (≈ 1.95 µM) in assay [11].
Regarding `CC(=O)NC[C@H]1CN(c2ccc(N3CCN(Cc4cc(-c5cccs5)no4)CC3)c(F)c2)C(=O)O1`, the MIC in assay [1] stood at 2 µg/mL (≈ 4 µM); in assay [2], 2 µg/mL (≈ 4 µM); in assay [3], 4 µg/mL (≈ 8.01 µM); in [4] it was 4 µg/mL (≈ 8.01 µM); in assay [5], 4 µg/mL (≈ 8.01 µM); in assay [6], 2 µg/mL (≈ 4 µM). For the same compound, the MIC in [7] is 1 µg/mL (≈ 2 µM); in assay [8] it was 22 µg/mL (≈ 44 µM); in [9] it was 1 µg/mL (≈ 2 µM); in assay [10], 4 µg/mL (≈ 8.01 µM); in assay [11], 1 µg/mL (≈ 2 µM).
On to `CC(=O)NC[C@H]1CN(c2ccc(N3CCN(C(=O)c4cc(-c5nccs5)no4)CC3)c(F)c2)C(=O)O1`, for which the MIC stood at 1 µg/mL (≈ 1.94 µM) in [1]; 0.5 µg/mL (≈ 0.972 µM) in assay [2]; 0.5 µg/mL (≈ 0.972 µM) in [3]; 0.5 µg/mL (≈ 0.972 µM) in assay [4]; 1 µg/mL (≈ 1.94 µM) in assay [5]; 1 µg/mL (≈ 1.94 µM) in assay [6]. In addition, the MIC was determined as 0.25 µg/mL (≈ 0.486 µM) in assay [7]; 0.5 µg/mL (≈ 0.972 µM) in assay [8]; 0.5 µg/mL (≈ 0.972 µM) in assay [9]; 2 µg/mL (≈ 3.89 µM) in [10]; 0.5 µg/mL (≈ 0.972 µM) in assay [11].
For the compound `CC(=O)NC[C@H]1CN(c2ccc(N3CCN(C(=O)c4ccno4)CC3)c(F)c2)C(=O)O1`, the MIC in assay [1] is 1 µg/mL (≈ 2.32 µM); in [2], 2 µg/mL (≈ 4.64 µM); in assay [3] it was 1 µg/mL (≈ 2.32 µM); in assay [4], 1 µg/mL (≈ 2.32 µM); in [5], 2 µg/mL (≈ 4.64 µM); in assay [6] it was 2 µg/mL (≈ 4.64 µM). In addition, the MIC worked out at 0.5 µg/mL (≈ 1.16 µM) in assay [7]; 22 µg/mL (≈ 51 µM) in [8]; 0.5 µg/mL (≈ 1.16 µM) in assay [9]; 2 µg/mL (≈ 4.64 µM) in assay [10]; 1 µg/mL (≈ 2.32 µM) in assay [11].
As for `CC(=O)NC[C@H]1CN(c2ccc(N3CCN(C(=O)c4cc(COC(=O)N(C)C)no4)CC3)c(F)c2)C(=O)O1`, the MIC in [1] was determined as 2 µg/mL (≈ 3.76 µM); in assay [2], 4 µg/mL (≈ 7.51 µM); in assay [3], 1 µg/mL (≈ 1.88 µM); in assay [4] it was 2 µg/mL (≈ 3.76 µM); in [5] it was 4 µg/mL (≈ 7.51 µM); in [6], 2 µg/mL (≈ 3.76 µM). For the same compound, the MIC in assay [7] came to 0.5 µg/mL (≈ 0.939 µM); in assay [8], 2 µg/mL (≈ 3.76 µM); in assay [9] it was 0.5 µg/mL (≈ 0.939 µM); in assay [10], 4 µg/mL (≈ 7.51 µM); in assay [11], 2 µg/mL (≈ 3.76 µM).
With `CC(=O)NC[C@H]1CN(c2ccc(N3CCN(Cc4cc(-c5ccc(Cl)cc5)no4)CC3)c(F)c2)C(=O)O1`, the MIC in assay [1] is 32 µg/mL (≈ 60.6 µM); in assay [2], greater than 32 µg/mL; in [3], 16 µg/mL (≈ 30.3 µM); in assay [4] it was 16 µg/mL (≈ 30.3 µM); in assay [5], 32 µg/mL (≈ 60.6 µM); in [6], greater than 32 µg/mL. In addition, the MIC is 4 µg/mL (≈ 7.58 µM) in assay [7]; 32 µg/mL (≈ 60.6 µM) in [8]; 4 µg/mL (≈ 7.58 µM) in assay [9]; greater than 32 µg/mL in assay [10]; 32 µg/mL (≈ 60.6 µM) in assay [11].
As to `CC(=O)NC[C@H]1CN(c2ccc(N3CCN(C(=O)c4cc(C#N)no4)CC3)c(F)c2)C(=O)O1`, the MIC in assay [1] worked out at 1 µg/mL (≈ 2.19 µM); in assay [2], 2 µg/mL (≈ 4.38 µM); in assay [3] it was 0.5 µg/mL (≈ 1.1 µM); in assay [4], 1 µg/mL (≈ 2.19 µM); in assay [5] it was 2 µg/mL (≈ 4.38 µM); in assay [6] it was 2 µg/mL (≈ 4.38 µM). The MIC was 0.25 µg/mL (≈ 0.548 µM) in [7]; 1 µg/mL (≈ 2.19 µM) in [8]; 0.25 µg/mL (≈ 0.548 µM) in assay [9]; 2 µg/mL (≈ 4.38 µM) in assay [10]; 0.5 µg/mL (≈ 1.1 µM) in assay [11].
On to `CC(=O)NC[C@H]1CN(c2ccc(N3CCN(C(=O)c4cc(-c5csnn5)no4)CC3)c(F)c2)C(=O)O1`, for which the MIC in [1] stood at 1 µg/mL (≈ 1.94 µM); in assay [2] it was 2 µg/mL (≈ 3.88 µM); in assay [3], 0.5 µg/mL (≈ 0.97 µM); in [4], 1 µg/mL (≈ 1.94 µM); in assay [5], 2 µg/mL (≈ 3.88 µM); in [6] it was 1 µg/mL (≈ 1.94 µM). For the same compound, the MIC in assay [7] was 0.5 µg/mL (≈ 0.97 µM); in assay [8] it was 1 µg/mL (≈ 1.94 µM); in assay [9], 0.5 µg/mL (≈ 0.97 µM); in assay [10], 2 µg/mL (≈ 3.88 µM); in assay [11], 1 µg/mL (≈ 1.94 µM).
